Assays:
Assay in all cases: relative viability (nuclei count vs DMSO), 5 days (fraction); higher = more cells survive
[1] = compound: COc1cc(-c2nn([C@H]3CC[C@H](N4CCN(C(C)=O)CC4)CC3)c3ncnc(N)c23)ccc1NC(=O)c1cc2ccccc2n1C + O=C(CCCCCCC(=O)Nc1ccccc1)NO [Vorinostat] (partner 1 µM)
In short: (§1)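 Values are medians from duplicate plates. Each reflects relative viability, defined as the nuclei count of treated wells over that of vehicle wells. Lung cancer cell lines in 1536-well plates were pin-tool dosed one day after seeding with one drug alone or with a fixed anchor-drug dose plus five library-drug doses (not always all listed) in √10 steps, then fixed, stained and imaged at 4× after 5 days.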

Midostaurin + Crizotinib = compound: CO[C@@H]1[C@H](N(C)C(=O)c2ccccc2)C[C@H]2O[C@]1(C)n1c3ccccc3c3c4c(c5c6ccccc6n2c5c31)C(=O)NC4 [Midostaurin] + C[C@@H](Oc1cc(-c2cnn(C3CCNCC3)c2)cnc1N)c1c(Cl)ccc(F)c1Cl [Crizotinib] (partner 1 µM)
In short: as §1

[2] = compound: COc1cc(-c2nn([C@H]3CC[C@H](N4CCN(C(C)=O)CC4)CC3)c3ncnc(N)c23)ccc1NC(=O)c1cc2ccccc2n1C + COc1cccc2cc(-c3nc([C@H]4CC[C@H](C(=O)O)CC4)n4ncnc(N)c34)[nH]c12 [OSI-027] (partner 0.5 µM)
In short: as §1

[3] = compound: COc1cc(-c2nn([C@H]3CC[C@H](N4CCN(C(C)=O)CC4)CC3)c3ncnc(N)c23)ccc1NC(=O)c1cc2ccccc2n1C + CC1(C)CCC(c2ccc(Cl)cc2)=C(CN2CCN(c3ccc(C(=O)NS(=O)(=O)c4ccc(N[C@H](CCN5CCOCC5)CSc5ccccc5)c(S(=O)(=O)C(F)(F)F)c4)cc3)CC2)C1 [Navitoclax] (partner 0.5 µM)
In short: as §1

[4] = compound: COc1cc(-c2nn([C@H]3CC[C@H](N4CCN(C(C)=O)CC4)CC3)c3ncnc(N)c23)ccc1NC(=O)c1cc2ccccc2n1C + CS(=O)(=O)N1CCN(Cc2cc3nc(-c4cccc5[nH]ncc45)nc(N4CCOCC4)c3s2)CC1 [Pictilisib] (partner 1 µM)
In short: as §1

Cell Line: UMC-11
- relative viability ([1]; first compound 0.0128 µM): 0.44
- relative viability ([1]; first compound 0.04048 µM): 0.38
- relative viability ([1]; first compound 0.128 µM): 0.351
- relative viability ([1]; first compound 1.28 µM): 0.342
- relative viability (Midostaurin + Crizotinib; first compound 0.01 µM): 0.553
- relative viability (Midostaurin + Crizotinib; first compound 0.03162 µM): 0.53
- relative viability (Midostaurin + Crizotinib; first compound 0.1 µM): 0.447
- relative viability (Midostaurin + Crizotinib; first compound 0.3162 µM): 0.179
- relative viability ([2]; first compound 0.0128 µM): 0.531
- relative viability ([2]; first compound 0.04048 µM): 0.463
- relative viability ([2]; first compound 0.128 µM): 0.474
- relative viability ([2]; first compound 1.28 µM): 0.414
- relative viability ([3]; first compound 0.0128 µM): 0.315
- relative viability ([3]; first compound 0.04048 µM): 0.323
- relative viability ([3]; first compound 0.128 µM): 0.28
- relative viability ([3]; first compound 1.28 µM): 0.297
- relative viability ([4]; first compound 0.0128 µM): 0.89
- relative viability ([4]; first compound 0.04048 µM): 0.788
- relative viability ([4]; first compound 0.128 µM): 0.767
- relative viability ([4]; first compound 1.28 µM): 0.71
